In patent publication US5733904A, “Method for prevention and treatment of viral infectious diseases for viral suppression” (priority 1996, dated 1998):

Experiments:
HIV-1 = test: Comparison of suppressive activity of HIV proliferation with FAS and other anti-HIV drugs (syncytium formation); format: cell-based; conditions: for IC50: Human immunodeficiency virus 1, FIG. 5, approximate, read-out: 50% inhibitory concentration, syncytium formation
Protocol: Comparison of suppressive activity of HIV proliferation with FAS and other anti-HIV drugs.
Experiments were conducted by the same method as in Example 3.
The medicaments used in this experiment were compounds of the present invention (FAS, and a compound of formula [I] where R^1 is hydroxy as in the above-mentioned Japanese Patent Unexamined Publication No. 61-152658), ddI (Sigma Corp.) and AZT (Sigma Corp.) which are used as medicaments for the treatment of AIDS, and dextran sulfate (Sigma Corp.).

rabbit platelets = test: Platelet aggregation; format: cell-based, rabbit (male, Japanese white); conditions: for Platelet aggregation rate, ADP: ADP 5 μM, control 66.3 ± 1.4; for Platelet aggregation rate, ADP / Platelet aggregation rate, Collagen: N=4, mean ± S.E.; for Platelet aggregation rate, Collagen: collagen 5 μg/ml, control 82.3 ± 1.6
Protocol: Rabbits (male, Japanese white, body weight 2-3 kg, Oriental Yeast Co.) were used. Blood was collected from an ear vein, a 1/10 volume of 3.8% sodium citrate was added thereto, and the mixture was centrifuged at 1,000 rpm for 10 minutes.
The supernatant separated by this action was designated platelet rich plasma (PRP), and the precipitate was further centrifuged at 3,000 rpm for 10 minutes to obtain a further supernatant, which was designated platelet poor plasma (PPP).
The number of platelets in the PRP was adjusted to 3×10^5 plate/μl by adding the PPP. A test sample was added to the PRP. After 1 minute, a prepared aqueous solution of ADP (adenosine diphosphate, Sigma Corp.) was added at the final concentration of 5 μM, or an aqueous solution of collagen (Sigma Corp.) was added at the final concentration of 5 μg/ml. The agglutination reaction was measured by using an agglico meter (NBS HEMA TRACER VI). The inhibition rate was calculated by comparing the maximum optical transmittance in samples with the compound to the maximum optical transmittance in samples with a physiological saline.
The compounds used were compounds of the present invention (FAS, and the compound of formula [I] where R^1 is hydroxy (Japanese Patent Unexamined Publication No. 61-152658) and adenosine (Sigma Corp.).

[1] = system: Herpes simplex virus type I; test: Inhibitory action for plaque formation of Herpes simplex virus type I; format: cell-based; conditions: mean of two, control 51
Protocol: (§1) Experiments were performed according to a method described in Antiviral Chemistry and Chemotherapy, 5 (6), 366-371, 1994 and Experimental Virology, Ed. by NIH Japan alumni assoc., Maruzen Publ. 1982, p. 65-78 or p. 331-340.
(§2) Vero cells cultured in the medium (Dulbecco's modified MEM added with 10% FBS) were detached by trypsin (Sigma Corp.). The detached cells were suspended by 2×10^5 cells/ml in the same medium, and placed in the wells of a 48 hole plate. The plate was incubated at 37° C. under 5% CO2 for about one day to complete a full-sheet of the cells in all wells. After incubation, cultured supernatant was removed. A solution (50 μl) containing the compound diluted with 4-fold stepwise dilution by virus culture medium (MM: Dulbecco's modified MEM added with 2% FBS), was added thereto.
(§3) A viral solution, 50 μl, in which the number of virus (parainfluenza virus or Herpes simplex virus type I) was adjusted to about 50 pfu (plaque forming unit)/50 μl by MM, was added to each well. MM 400 μl containing 1% methylcellulose was added in each well to provide a compound-added test group. A control group was prepared by adding the viral culture medium without adding the test compound.
(§4) The groups were incubated at 37° C. under 5% CO2 for three days to form plaques and the number of plaques in each well was counted.
(§5) The test compounds were FAS, and the compound of formula [I] where R^1 is hydroxy. The final concentration of the compound in the solution was set to 100, 25, 6.3 and 1.6 μg/ml, respectively. Each test group included 2 wells and a mean of the plaque numbers was obtained.

rabbit plasma = test: Blood coagulation time (APTT, PT); parameters: species or system rabbit (male, Japanese white); conditions: for PT / APTT: N=4, mean ± S.E.; for PT: control 5.8 ± 0.1; for APTT: control 21.2 ± 0.5
Protocol: a) Blood coagulation time:
Rabbits (male, Japanese white, body weight 2-3 kg, Oriental Yeast Co.) were used. […] After adding the test compound to the resultant plasma, activated partial thromboplastin time (APTT) and prothrombin time (PT) were measured by using a coagulometer (Coagtec, Coagtec TE600, EMRA; KC-10A, Baxter).

parainfluenza virus = test: Inhibitory action for plaque formation of parainfluenza virus; format: cell-based; conditions: mean of two, control 51.5
Protocol: as §1, §2, §3, §4, §5

Acute toxicity in mice = test: Acute toxicity in mice; parameters: species or system mouse (Slc: ddy, 5 weeks); conditions: mouse, in vivo, iv, i. v., male
Protocol: Acute toxicity of the compounds of the present invention were conducted on rats and mice, and low toxicity was confirmed.

HIV = conditions: Antiviral Res., 22: 273-283, 1993; cited from earlier work
[2] = system: HIV-1 (LAV-1) persistently infected MOLT-4 cells with non-infected MOLT-4 cells; test: Inhibitory activity of HIV syncytia formation: HIV-1 chronic-phase infection; format: cell-based; conditions: FIG. 2; 48 hours
Protocol: b) Activity of the medicament on HIV-1 chronic-phase infection:
Cells obtained by culturing MOLT-4 (culture condition: 37° C., 5% CO2 /95% air, RPMI medium (GIBCO Corp.) containing 10% FBS) were adjusted to a preferable number of cells (1×10^5 cells/50 μl). HIV-1 (LAV-1) preparation, 50 μl was added to the cell suspension, 50 μl and subjected to a mixing culture (infectious condition of HIV-1 to MOLT-4: M.O.I.=1). The infected cell mixture was cultured by exchanging a fresh culture medium every 3 days at a volume rate of 2:5. The culture was continued for more than 1 month to prepare persistent infected cells. The concentration of the persistent infected cells was adjusted to a preferable number of cells (1×10^5 cells/50 μl ) (the persistent infected cell preparation).
Cell preparation without infection was prepared by culturing MOLT-4 (culture condition: 37° C., 5% CO2 /95% air, RPMI medium (GIBCO Corp.) containing 10% FBS) and adjusting the concentration to a preferable number of cells (1×10^5 cells/50 μl).
The persistent infected cell preparation, 50 μl, was placed in the wells of a 96 hole microplate and the non-infected cell preparation, 50 μl, was added therein and cultured for 48 hours. Numbers of the formed syncytia were counted microscopically.
Each compound solution tested was added, 100 μl, at the time of mixing the persistent infected cell preparation with the non-infected cell preparation, to provide the final concentrations shown in FIG. 2 (medicament added test group).
The no-medicament-added group (control group) was prepared by replacing the compound solution, 100 μl.

[3] = system: HIV-1 (LAV-1 strain) in MOLT-4 cells; test: Inhibitory activity of HIV syncytia formation: HIV-1 acute-phase infection; format: cell-based; conditions: for inhibition at 30 µM: Human immunodeficiency virus 1, MOLT-4, in concentrations of 30 μM, 48 hours; for inhibitory effects on syncytia formation: in concentrations of 2.0 μM
Protocol: a) Activity of the medicament on HIV-1 acute-phase infection:
Cells obtained by culturing MOLT-4 (American Type Culture Collection ATCC CRL-1582) in RPMI medium (GIBCO Corp.) containing 10% FBS (fetal bovine serum: GIBCO Corp.) (culture condition: 37° C., 5% CO2 /95% air) were prepared to aliquot number of cells (1×10^5 cells/50 μl). The cell suspension, 50 μl and the liquid preparation, 50 μl containing HIV-1 (LAV-1 strain, Wain-Hobson et al., Cell 40: 9-17, 1985) in RPMI medium with 10% FBS were put into each well of a 96 hole microplate and cultured for 48 hours (Infectious condition of MOLT-4 and HIV-1: M.O.I.=4.0).
Each compound was dissolved in RPMI medium containing 10% FBS at the final concentration as shown in FIG. 1 to prepare the medicament solution. The medicament solution, 100 μl was added to the mixture of MOLT-4 cell preparation and HIV-1 preparation at the time of mixing with MOLT-4 and HIV-1 to prepare the final volume of the liquid, 200 μl. The number of formed syncytia were microscopically counted.
Tested compounds were: FAS (fasudil hydrochloride, Chem. Pharm. Bull., 40 (3), 770-773, (1992)), C kinase inhibitor H-7 (1-5-isoquinolinylsulfonyl)-2-methyl-piperazine, Sigma Corp.), and calmodulin kinase II inhibitor KN-62 (1-(N,O-bis-[5-isoquinolinylsulfonyl]-N-methyl-L-tyrosyl)-4-phenyl-piperazine, Sigma Corp., Neuroscience Lett., 129, 47 (1991)) .
The control group without the compound was prepared by replacing the medicament solution, 100 μl.
Syncytium formation activity was calculated by comparing the syncytia formation in the test group to that of the control group in the following equation.
Syncytium formation activity=number of syncytia formed in the medicament-added group/number of syncytia formed in the no-medicament-added group.

[4] = system: Env (gp120) protein, HIV-1 infected MOLT-4 cells; test: Suppressive action on expression of Env (gp120) protein on the surface of cells; format: cell-based; conditions: FIG. 3; Env positive cells after 5 days
Protocol: (Suppressive action on expression of Env (gp120) protein on the surface of cells.)
Cells obtained by culturing MOLT-4 (culture condition: 37° C., 5% CO2 /95% air, RPMI medium (GIBCO Corp.) containing 10% FBS) were adjusted to a preferable number of cells (1×10^5 cells/50 μl ). The cell suspension, 50 μl, (infected with MOLT-4 and HIV-1: M.O.I.=1.0) was put in a 96 hole microplate and cultured for 1 hour to infect the cells.
A solution of the compound shown below, 100 μl, was added in each well and cultured for 5 days. The cultured solution was transferred into a plastic tube (Eppendorf Corp.) and centrifuged to collect the cells. The cells were treated with mouse anti-Env gp120 monoclonal antibody (Replingen Inc.) as a primary antibody and FITC (Fluorescein Isothiocyanate) labelled goat anti-mouse IgG (Cappel Corp.) as a secondary antibody to fluoresce. The number of fluorescent cells was fluoroscopically calculated by counting fluorescent cells according to an indirect fluorescent antibody technique (Techniques in HIV Research, Ed. A. Aldoriny and B. D. Walker, Stokton Press, New York, 1990).
Env positive cells (%) was calculated by the following equation:
Env positive cells (%)=(FITC) positive cells/total cells)×100
Compounds: FAS, H-7 and KN-62.
Control: solution without compound was used.

Cc1cn([C@H]2C[C@H](N=[N+]=[N-])[C@@H](CO)O2)c(=O)[nH]c1=O [AZT, 3'-azido-3'-deoxythymidine]
IC50 (HIV-1): ~50 µM

Nc1ncnc2c1ncn2[C@@H]1O[C@H](CO)[C@@H](O)[C@H]1O [Adenosine, adenosine]
effect on ADP coagulation and collagen coagulation (rabbit platelets): suppressed ADP coagulation and collagen coagulation

O=S(=O)(c1cccc2c(O)nccc12)N1CCCNCC1 [Compound of the formula [I] (R^1 = OH)]
Plaque No. ([1]; 1.6 μg/ml): 51
Plaque No. ([1]; 6.3 μg/ml): 51
Plaque No. ([1]; 25 μg/ml): 56
Plaque No. ([1]; 100 μg/ml): 37.5
effect on blood coagulation time (APTT, PT) (rabbit plasma): no effect on blood coagulation time
PT (rabbit plasma; 30 μM): 5.6 ± 0.1 s
APTT (rabbit plasma; 30 μM): 20.2 ± 0.4 s
PT (rabbit plasma; 100 μM): 5.5 ± 0.1 s
APTT (rabbit plasma; 100 μM): 20.1 ± 0.4 s
Plaque No. (parainfluenza virus; 25 μg/ml): 59
Plaque No. (parainfluenza virus; 100 μg/ml): 4.5
Platelet aggregation rate, ADP (rabbit platelets; 10 μM): 63.0 ± 2.3%
Platelet aggregation rate, Collagen (rabbit platelets; 10 μM): 80.0 ± 1.7%
Platelet aggregation rate, ADP (rabbit platelets; 30 μM): 63.8 ± 2.9%
Platelet aggregation rate, Collagen (rabbit platelets; 30 μM): 79.3 ± 1.1%
Platelet aggregation rate, ADP (rabbit platelets; 100 μM): 64.3 ± 3.8%
Platelet aggregation rate, Collagen (rabbit platelets; 100 μM): 81.0 ± 1.2%
inhibitory activity of syncytium formation of HIV-1 (HIV-1): inhibited the formation of syncytium of HIV-1
LD50 (Acute toxicity in mice): 119 mg/kg

CC1CNCCN1S(=O)(=O)c1cccc2cnccc12 (centres unmarked) [H-7, 1-(5-isoquinoryl-sulfonyl)-2-methyl-piperazine]
effectiveness against HIV infectious disease (HIV): has not been found to be clearly effective
inhibitory activity for syncytium formation [2]: no inhibitory activity for syncytium formation
inhibition at 30 µM [3]: ~50%
inhibitory effects on syncytia formation [3]: no inhibitory effects were observed
inhibitory activity for Env expression [4]: no significant inhibitory activity for Env expression

CN([C@@H](Cc1ccc(OS(=O)(=O)c2cccc3cnccc23)cc1)C(=O)N1CCN(c2ccccc2)CC1)S(=O)(=O)c1cccc2cnccc12 [KN-62, 1-(N,O-bis-[5-isoquinolinylsulfonyl]-N-methyl-L-tyrosyl)-4-phenyl-piperazine]
inhibitory activity for syncytium formation [2]: no inhibitory activity for syncytium formation
inhibition at 30 µM [3]: ~75%
inhibitory effects on syncytia formation [3]: no inhibitory effects were observed
inhibitory activity for Env expression [4]: weak inhibitory activity for Env expression

OC[C@@H]1CC[C@H](n2cnc3c(O)ncnc32)O1 [ddI, 2', 3'-dideoxyinosine]
IC50 (HIV-1): ~100 µM

Heparin
effect on blood coagulation time (APTT, PT) (rabbit plasma): clearly extended APTT and PT
